This note sets out measurements from paper PMC3439875 (Nucleic Acids Research, 2012).

This assay has as its target variola topoisomerase (Variola virus, UniProt P32989). The assay is classed as biochemical.

Structures are written as SMILES.

Chain of variola topoisomerase (P32989 whole entry, looked up): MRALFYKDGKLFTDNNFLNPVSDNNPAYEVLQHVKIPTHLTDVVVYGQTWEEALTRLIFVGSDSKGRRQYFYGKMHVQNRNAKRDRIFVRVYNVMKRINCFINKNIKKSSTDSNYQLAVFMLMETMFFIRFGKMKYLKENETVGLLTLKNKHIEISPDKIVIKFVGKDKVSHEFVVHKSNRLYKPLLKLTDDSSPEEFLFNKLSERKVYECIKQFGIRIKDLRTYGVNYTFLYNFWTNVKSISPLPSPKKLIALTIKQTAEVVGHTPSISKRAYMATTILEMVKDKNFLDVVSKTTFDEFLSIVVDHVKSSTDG

On to `CCOC(=O)c1c(O)c2cc(-c3cccc(OC)n3)cnc2n(O)c1=O` [Compound 7], for which the “Inhibition of variola topoisomerase activity” value was “no inhibitory activity”.
